Structures are written as SMILES.

The text below walks through data of US10898471B2, “Methods of inhibiting leukotriene A4 hydrolase” (Celltaxis, LLC, priority 2013, dated 2021).

One data set concerns the target T1, LTA4-h (Homo sapiens, UniProt P09960).
T1 construct: in human whole blood has been determined using an ex vivo assay; from tissue; host or cells: human whole blood (male and female donors)
T1 sequence (P09960 1-611): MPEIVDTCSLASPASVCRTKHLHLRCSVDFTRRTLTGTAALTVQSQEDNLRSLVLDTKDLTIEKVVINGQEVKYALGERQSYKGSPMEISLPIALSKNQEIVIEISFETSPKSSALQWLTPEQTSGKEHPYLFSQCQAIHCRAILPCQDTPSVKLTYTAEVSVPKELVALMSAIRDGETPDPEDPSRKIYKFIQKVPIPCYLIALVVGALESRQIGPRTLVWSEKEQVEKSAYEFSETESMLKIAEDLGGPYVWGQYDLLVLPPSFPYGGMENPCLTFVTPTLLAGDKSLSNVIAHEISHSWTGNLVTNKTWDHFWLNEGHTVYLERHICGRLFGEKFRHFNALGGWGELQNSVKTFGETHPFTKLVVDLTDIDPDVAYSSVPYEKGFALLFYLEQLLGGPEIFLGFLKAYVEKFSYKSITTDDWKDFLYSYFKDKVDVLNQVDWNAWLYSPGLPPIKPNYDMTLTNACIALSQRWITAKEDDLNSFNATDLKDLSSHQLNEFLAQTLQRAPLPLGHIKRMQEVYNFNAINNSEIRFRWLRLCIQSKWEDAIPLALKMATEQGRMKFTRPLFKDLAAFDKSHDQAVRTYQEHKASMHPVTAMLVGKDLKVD
Kind of data set: human whole blood ex vivo assay: A23187-stimulated LTB4 production measured by ELISA. In kind it is cell-based. Conditions: IC50 in human whole blood. The source says:
The IC50 of 4-{[(1S,4S)-5-({4-[4-oxazol-2-yl-phenoxy]phenyl}methyl)-2,5-diazabicyclo[2.2.1]heptan-2-yl]methyl}benzoic acid in human whole blood has been determined using an ex vivo assay. The human whole blood assay has been described in Penning et al (2000), Structure and Activity Relationship Studies on 1-[2-(4-Phenylphenoxy)ethyl]pyrrolidone (SC-22716), a Potent Inhibitor of Leukotriene A4 (LTA4) hydrolase, J. Med. Chem. 43: 721-735, the contents of which are expressly incorporated by reference herein. In this assay, LTB4 production is stimulated by addition of calcium ionophone (A23187) in the absence or presence of varied concentrations of 4-{[(1S,4S)-5-({4-[4-oxazol-2-yl-phenoxy]phenyl}methyl)-2,5-diazabicyclo[2.2.1]heptan-2-yl]methyl}benzoic acid. The ability of 4-{[(1S,4S)-5-({4-[4-oxazol-2-yl-phenoxy]phenyl}methyl)-2,5-diazabicyclo[2.2.1]heptan-2-yl]methyl}benzoic acid to reduce is LTB4 production is determined by ELISA. This ELISA assay was performed using the Leukotriene B4 EIA Kit available from Cayman Chemical (Item No. 520111) and the assay was performed according to the manufacturer's instructions.
(§1) Thus, oral human doses as low as 10 mg can provide therapeutic benefit in the current formulation and, with improved formulation, doses as low as 5 mg can achieve therapeutic levels of the compound in blood.

A short description of data set [1]: human pharmacokinetics: plasma concentration over time after oral dose. In kind it is in vivo. The procedure: The two sets of dashed, horizontal lines indicate the plasma concentration that is three-times (3×) the IC50 and the plasma concentration that is one-time (1×) the IC50 of 4-{[(1S,4S)-5-({4-[4-oxazol-2-yl-phenoxy]phenyl}methyl)-2,5-diazabicyclo[2.2.1]heptan-2-yl]methyl}benzoic acid in human blood.
as §1

On to `O=C(O)c1ccc(CN2C[C@@H]3C[C@H]2CN3Cc2ccc(Oc3ccc(-c4ncco4)cc3)cc2)cc1` [4-{[(1S,4S)-5-({4-[4-oxazol-2-yl-phenoxy]phenyl}methyl)-2,5-diazabicyclo[2.2.1]heptan-2-yl]methyl}benzoic acid], for which the IC50 (as a rule, the midpoint of a concentration-inhibition curve) at LTA4-h (female blood) was 68 nM; at LTA4-h (human whole blood, LTB4 production stimulated by calcium ionophore A23187) it was approximately 62.3 nM; against LTA4-h (male blood) it was 60 nM. For the same compound, the “peak plasma concentration relative to the IC50” value in data set [1] (5 mg oral dose) was “nearly achieves the IC50”. The “time for which the blood plasma level exceeds the IC50” value in data set [1] (15 mg oral dose) was “over 12 hours”. Moreover, in data set [1] (50 mg oral dose), the “time for which the blood plasma level exceeds 3-times the IC50” value is on record as “over 24 hours”.
